Measurements reported in a melting point compilation (Tetko et al.; mined from patent text by program, amines drawn as free bases though some values may be those of a salt).

Q: For `O=[N+]([O-])c1nccn1CC(O)CN1CCCCC1` (stereo unspecified), which melting point is on record?
A: Its melting point is 108 to 109 °C.

Q: For `NCC1Cc2cc(-c3cccc(C(F)(F)F)c3)cc(F)c2O1` (stereo unspecified), which melting point is on record?
A: Its melting point is > 250 °C.

Q: Which melting point does the source give for `CCOC(=O)C(Cc1cccc(OCC(F)(F)C(F)F)c1)C(=O)c1ccc(F)cc1` (stereo unspecified) here?
A: Its melting point is 55 to 56 °C.

Q: Which melting point does the source give for `CCOc1cc2ncc(C#N)c(C)c2cc1OCC` here?
A: Its melting point is 140 to 145 °C.

Q: Which melting point does the source give for `CN1C(=O)C(C(=O)Nc2ccccc2)c2cc3c(cc2S1(=O)=O)CCCC3` (stereo unspecified) here?
A: The melting point was 203 to 204 °C.

Q: For `O=C(O)CCCC1CCN(CCOC(c2ccc(F)cc2)c2ccc(F)cc2)CC1`, which melting point is on record?
A: Its melting point is 145 to 147 °C.

Q: For `O=C1OC(c2ccccc2)C(c2ccccc2)=C1C(=O)N1CCOCC1` (stereo unspecified), which melting point is on record?
A: Its melting point is 204 to 206 °C.

Q: For `CCOC(=O)c1cc(OC)ccc1CCc1cc2cc(C#N)ccc2o1`, which melting point is on record?
A: Its melting point is 92 to 93 °C.

Q: For `COc1c(Cl)cc(OCC=C(Cl)Cl)cc1C=O`, which melting point is on record?
A: The melting point was 78 °C.

Q: For `C#CCN1C(=O)COc2ccc(N)cc21`, which melting point is on record?
A: Its melting point is 136 to 140 °C.

Q: For `CCN1C(=O)C(O)=C(c2c(C)cc(C)cc2C)C1=O`, which melting point is on record?
A: The melting point was 168 °C.

Q: With `O=C1NN=C(c2ccc(Cl)cc2)C2CC12` (stereo unspecified) as the compound, how does the melting point read?
A: The melting point was 199 to 200 °C.

Q: With `CC(=O)c1ccc(C(Br)C(=O)OC(C)(C)C)cc1` (stereo unspecified) as the compound, how does the melting point read?
A: Its melting point is 54 to 56 °C.

Q: With `COC(=O)c1nc(C)c(-c2ccccc2)nc1N` as the compound, how does the melting point read?
A: Its melting point is 162 °C.

Q: For `CNC(=O)CCCCc1csc(NC(N)=NCC(F)(F)F)n1`, which melting point is on record?
A: Its melting point is 122 to 126 °C.

Q: With `NC(=O)c1c(-c2cccc(F)c2)c(Cl)n2c1CNCC2` as the compound, how does the melting point read?
A: Its melting point is 226 to 228 °C.

Q: Which melting point does the source give for `On1c(-c2ccccc2)c[nH]c1=S` here?
A: The melting point was 191 °C.

Q: With `C[C@@H](Nc1ncnc2cc(N)ncc12)c1ccccc1` as the compound, how does the melting point read?
A: Its melting point is 232 °C.

Q: With `COc1cc(C(=O)C=Cc2ccccn2)cc(OC)c1OC` as the compound, how does the melting point read?
A: The melting point was 94 to 95 °C.

Q: Which melting point does the source give for `Cc1c(-c2ccccc2)[nH]c2ccc(Br)cc12` here?
A: The melting point was 138 to 140 °C.

Q: With `CCOC(=O)c1ccc(Br)cc1-c1ccc(OC)c(OC)c1` as the compound, how does the melting point read?
A: The melting point was 53 °C.

Q: Which melting point does the source give for `C[C@]1(CN2CCC(NCCc3ccc(C(F)(F)F)cc3)CC2)Cn2cc([N+](=O)[O-])nc2O1` here?
A: The melting point was 80.7 to 84.2 °C.

Q: For `COc1cc2c(c3c1OC(C)(C)C3)C(c1ccccc1)=NC(CN1C(=O)c3ccccc3C1=O)C2` (stereo unspecified), which melting point is on record?
A: Its melting point is 228 to 229 °C.

Q: With `Cn1cc2c3c(c(Cl)cc2n1)CCC3=O` as the compound, how does the melting point read?
A: Its melting point is 207 to 209 °C.

Q: Which melting point does the source give for `Cc1c(O)ccc(S)c1C` here?
A: Its melting point is 98 to 99 °C.

Q: Which melting point does the source give for `CC(C)(C)OC(=O)Nc1ccc(-c2ncn(-c3ccc(OC(F)(F)C(F)(F)F)cc3)n2)cc1` here?
A: The melting point was 205 to 209 °C.

Q: Which melting point does the source give for `CSc1ccc(-c2cc3ncn([C@H](C)[C@](O)(Cn4cncn4)c4ccc(F)cc4F)c(=O)c3s2)cc1` here?
A: The melting point was 223 to 224 °C.

Q: For `CON(C(=O)Cc1nc2ccc(Cl)cc2o1)c1ccccc1`, which melting point is on record?
A: The melting point was 139 °C.

Q: With `COC(=O)c1cnc2c3cc(NC(=O)CCC4CCCC4)ccc3ncn2c1=O` as the compound, how does the melting point read?
A: Its melting point is 244 to 247 °C.

Q: For `C#CCn1c(-c2cccnc2)c(C)c2ccccc21`, which melting point is on record?
A: The melting point was 104 to 105 °C.

Q: Which melting point does the source give for `CC(=Cc1ccc2c(c1)S(=O)(=O)c1cc(C=C(C)c3ccccc3)ccc1N2C)c1ccccc1` here?
A: The melting point was 190 to 193 °C.

Q: For `Nc1ncc(CCN2CCC(C(=O)c3ccc(F)cc3)CC2)c(O)n1`, which melting point is on record?
A: The melting point was 256 °C.

Q: For `OCCCc1ccc(OCc2ccco2)cc1Oc1ncc(C(F)(F)F)cc1Cl`, which melting point is on record?
A: The melting point was 68 to 68.6 °C.

Q: With `CC1(C)c2cc(C(=O)O)ccc2Oc2ncccc21` as the compound, how does the melting point read?
A: The melting point was 241 to 242 °C.

Q: With `COC(=O)c1ccc(-c2ncc(-c3ccc4c(c3)C(C)(C)CCC4(C)C)o2)cc1` as the compound, how does the melting point read?
A: Its melting point is 153 to 155 °C.

Q: Which melting point does the source give for `CCCCN1CC(=O)C(C(=O)OCC)C1=O` (stereo unspecified) here?
A: The melting point was 121 to 123 °C.

Q: With `CC1(C)[C@@H](C=C(F)F)[C@@H]1C(=O)OCc1c(F)c(F)c(F)c(-c2ccccc2)c1F` (relative stereo) as the compound, how does the melting point read?
A: The melting point was 69 to 72 °C.

Q: With `COc1ccc(C)cc1NC(=O)Nc1ccc(N2CCN(c3ncccn3)CC2)cc1` as the compound, how does the melting point read?
A: The melting point was 220 to 221 °C.

Q: For `Cc1cnc2c(c1)C(=O)c1cc(-c3ccccc3)c(=O)[nH]c1C2=O`, which melting point is on record?
A: The melting point was 275 °C.

Q: With `N[C@H]1CC[C@H](CN2CCC(=C3c4ccccc4Sc4ccc(Cl)cc43)CC2)CC1` as the compound, how does the melting point read?
A: The melting point was 128 to 135 °C.

Q: Which melting point does the source give for `O=C1c2ccccc2C(=O)N1OS(=O)(=O)c1ccccc1` here?
A: Its melting point is 186 °C.

Q: With `CS(=O)(=O)OCC1CSC2=C(O1)c1ccccc1C(=O)C2=O` (stereo unspecified) as the compound, how does the melting point read?
A: The melting point was 230 to 232 °C.

Q: With `CCOC(=O)C1(O)CC(C(F)(F)F)=NN1c1ncccc1Cl` (stereo unspecified) as the compound, how does the melting point read?
A: Its melting point is 78 to 78.5 °C.

Q: Which melting point does the source give for `CCc1ccc(OCCc2c[nH]cn2)cc1` here?
A: Its melting point is 178 °C.

Q: Which melting point does the source give for `CN(C)Cc1ccc2c(NCc3ccc(NC(=O)c4ccc(F)cc4)cc3)nc(N(C)C)nc2c1` here?
A: Its melting point is 94 °C.

Q: With `COC(=O)C1CCC2(C3(C)OCCO3)CC1C(=O)O2` (stereo unspecified) as the compound, how does the melting point read?
A: Its melting point is 69 to 71 °C.

Q: With `Cc1oc(-c2ccco2)nc1COc1ccc(COc2ncccc2C=O)cc1` as the compound, how does the melting point read?
A: Its melting point is 109 to 110 °C.

Q: Which melting point does the source give for `C[Si](C)(C)Nc1ccn([Si](C)(C)C)c(=O)n1` here?
A: Its melting point is 252 to 256 °C.

Q: Which melting point does the source give for `O=C(c1cccnc1)N1CC2CCc3ccccc3C2=N1` (stereo unspecified) here?
A: Its melting point is 141 to 143 °C.

Q: Which melting point does the source give for `CC(=O)C(C#N)c1cc(Cl)cc(Cl)c1Cl` (stereo unspecified) here?
A: Its melting point is 134 to 135 °C.

Q: With `O=c1[nH]c2ccc(CCN3CCN(c4cccc5ccccc45)CC3)cc2o1` as the compound, how does the melting point read?
A: Its melting point is 282 to 285 °C.
